Test results taken from US9555029B2 (HIKMA PHARMACEUTICALS, priority 2013, dated 2017).
Like-named read-outs stand apart in the source and are kept apart here.

Legend:
[1] = cited from earlier work; for AUCT / Cmax: geometric mean
clinical = conditions: human, plasma, oral
[2] = for AUCT/∞ / Kel / T1/2el: mean
[3] = Colchicine pharmacokinetics coadministered with fluconazole
Description: The inhibitor dosage form was an oral 200 mg tablet of Diflucan® (fluconazole, from Pfizer).
The fluconazole trial differed from the Example 2 protocol as follows.

[4] = cited from earlier work; for AUCT / Cmax: geometric mean; remark: listed apart in the source
[5] = cited from earlier work
[6] = Treatment-1: colchicine 0.6 mg alone (day 1, fasted), ketoconazole study, arithmetic mean
[7] = Treatment-1: colchicine 0.6 mg alone (day 1, fasted), ketoconazole study
[8] = Treatment-2: colchicine 0.6 mg (day 19) + ketoconazole 200 mg twice daily
[9] = Treatment-1 (day 1): colchicine 0.6 mg alone, fasted, cimetidine study
[10] = Treatment-2 (day 9): colchicine 0.6 mg + cimetidine 800 mg after double dose day 4, once daily days 5-8, fasted
[11] = Treatment-1 (day 1): colchicine 0.6 mg alone, fasted, fluconazole study, mean
[12] = Treatment-2 (day 9): colchicine 0.6 mg + fluconazole 200 mg after double dose day 4, once daily days 5-8, fasted, mean
[13] = co-administration of fluconazole vs colchicine alone
[14] = Treatment-1: colchicine 0.6 mg alone (day 1, fasted), ritonavir study, arithmetic mean
[15] = Treatment-1: colchicine 0.6 mg alone (day 1, fasted), ritonavir study
[16] = Treatment-2: colchicine 0.6 mg (day 19) + ritonavir 100 mg twice daily (days 15-19)
[17] = of 12 subjects, colchicine + propafenone
[18] = of 12 subjects, propafenone study

COc1cc2c(c(OC)c1OC)-c1ccc(OC)c(=O)cc1[C@@H](NC(C)=O)CC2 [Colchicine, (S)N-(5,6,7,9-tetrahydro-1,2,3,10-tetramethoxy-9-oxobenzo[alpha]heptalen-7-yl)acetamide]
Kel [1, 6]: 0.1491 h⁻¹
T1/2el [1, 6]: 6.28 h
CLTOT/F [1, 7]: 49.3 L/h
AUCT [1, 7]: 11,990 pg · h/mL
Cmax [1, 7]: 2,780 pg/mL
T1/2el ([1]; Treatment-2: colchicine 0.6 mg (day 19) + ketoconazole 200 mg twice daily, arithmetic mean): 26.06 h
CLTOT/F [1, 8]: 14.8 L/h
AUCT [1, 8]: 34,380 pg · h/mL
Cmax [1, 8]: 5,270 pg/mL
AUC(0-t) (clinical; both, AUCT, Treatment-2 (day 9): colchicine 0.6 mg + cimetidine 800 mg after double dose day 4, once daily days 5-8, fasted, mean): 18.1 ng·h/mL
CL/F (clinical; 0.6 mg): 465 mL/min
Tmax (clinical; 0.6 mg): 1.25 h
Vd/F (clinical; 0.6 mg): 1410 L
AUC(0-t) (clinical; 0.6 mg, AUCT GEOMETRIC LSMEANS, Treatment-1: colchicine 0.6 mg alone, cimetidine study): 19.3 ng·h/mL
AUC(0-t) (clinical; 0.6 mg, AUCT, Treatment-1 (day 1): colchicine 0.6 mg alone, fasted, cimetidine study, mean): 20.4 ng·h/mL
AUC(0-inf) (clinical; 0.6 mg, AUC∞ GEOMETRIC LSMEANS, Treatment-1: colchicine 0.6 mg alone, cimetidine study): 22.6 ng·h/mL
AUC(0-inf) (clinical; 0.6 mg, AUC∞, Treatment-1 (day 1): colchicine 0.6 mg alone, fasted, cimetidine study, mean): 24 ng·h/mL
Cmax (clinical; 0.6 mg, Cmax GEOMETRIC LSMEANS, Treatment-1: colchicine 0.6 mg alone, cimetidine study): 2.78 ng/mL
Cmax (clinical; 0.6 mg, Cmax, Treatment-1 (day 1): colchicine 0.6 mg alone, fasted, cimetidine study, mean): 3 ng/mL
AUC(0-t) (clinical; AUCT GEOMETRIC LSMEANS, Treatment-2: colchicine 0.6 mg + cimetidine): 16.7 ng·h/mL
AUC(0-inf) (clinical; AUC∞ GEOMETRIC LSMEANS, Treatment-2: colchicine 0.6 mg + cimetidine): 19.3 ng·h/mL
AUC(0-inf) (clinical; AUC∞, Treatment-2 (day 9): colchicine 0.6 mg + cimetidine 800 mg after double dose day 4, once daily days 5-8, fasted, mean): 21 ng·h/mL
Cmax (clinical; Cmax GEOMETRIC LSMEANS, Treatment-2: colchicine 0.6 mg + cimetidine): 1.88 ng/mL
Cmax (clinical; Cmax, Treatment-2 (day 9): colchicine 0.6 mg + cimetidine 800 mg after double dose day 4, once daily days 5-8, fasted, mean): 2.11 ng/mL
AUCT/∞ [2, 9]: 85.29%
Kel [2, 9]: 0.0201 h⁻¹
T1/2el [2, 9]: 35.46 h
AUCT/∞ [2, 10]: 86.53%
Kel [2, 10]: 0.0222 h⁻¹
T1/2el [2, 10]: 31.54 h
Decrease of colchicine Cmax ([2]; coadministration with cimetidine vs colchicine alone): 33%
Decrease of colchicine AUC ([2]; coadministration with cimetidine vs colchicine alone, not significant): 15%
AUCT/∞ [3, 11]: 85.33%
Kel [3, 11]: 0.0206 h⁻¹
T1/2el [3, 11]: 34.05 h
AUCT/∞ [3, 12]: 83.54%
Kel [3, 12]: 0.0204 h⁻¹
T1/2el [3, 12]: 34.51 h
Increase of mean Cmax for colchicine [3, 13]: 13%
Increase of overall exposure of colchicine (AUC) [3, 13]: 40%
CL/F ([3]; male, human, in vivo, 0.6 mg): 610 mL/min
Tmax ([3]; male, human, in vivo, 0.6 mg): 1.25 h
Vd/F ([3]; male, human, in vivo, 0.6 mg): 1810 L
AUC(0-t) ([3]; male, human, in vivo, 0.6 mg, AUCT GEOMETRIC LSMEANS, Treatment-1: colchicine 0.6 mg alone, fluconazole study): 14.5 ng·h/mL
AUC(0-t) ([3]; male, human, in vivo, 0.6 mg, AUCT, Treatment-1 (day 1): colchicine 0.6 mg alone, fasted, fluconazole study, mean): 14.9 ng·h/mL
AUC(0-inf) ([3]; male, human, in vivo, 0.6 mg, AUC∞ GEOMETRIC LSMEANS, Treatment-1: colchicine 0.6 mg alone, fluconazole study): 17 ng·h/mL
AUC(0-inf) ([3]; male, human, in vivo, 0.6 mg, AUC∞, Treatment-1 (day 1): colchicine 0.6 mg alone, fasted, fluconazole study, mean): 17.5 ng·h/mL
Cmax ([3]; male, human, in vivo, 0.6 mg, Cmax GEOMETRIC LSMEANS, Treatment-1: colchicine 0.6 mg alone, fluconazole study): 1.81 ng/mL
Cmax ([3]; male, human, in vivo, 0.6 mg, Cmax, Treatment-1 (day 1): colchicine 0.6 mg alone, fasted, fluconazole study, mean): 1.93 ng/mL
AUC(0-t) ([3]; male, human, in vivo, AUCT GEOMETRIC LSMEANS, Treatment-2: colchicine 0.6 mg + fluconazole): 20.4 ng·h/mL
AUC(0-t) ([3]; male, human, in vivo, AUCT, Treatment-2 (day 9): colchicine 0.6 mg + fluconazole 200 mg after double dose day 4, once daily days 5-8, fasted, mean): 21.3 ng·h/mL
AUC(0-inf) ([3]; male, human, in vivo, AUC∞ GEOMETRIC LSMEANS, Treatment-2: colchicine 0.6 mg + fluconazole): 24.4 ng·h/mL
AUC(0-inf) ([3]; male, human, in vivo, AUC∞, Treatment-2 (day 9): colchicine 0.6 mg + fluconazole 200 mg after double dose day 4, once daily days 5-8, fasted, mean): 25.6 ng·h/mL
Cmax ([3]; male, human, in vivo, Cmax GEOMETRIC LSMEANS, Treatment-2: colchicine 0.6 mg + fluconazole): 2.05 ng/mL
Cmax ([3]; male, human, in vivo, Cmax, Treatment-2 (day 9): colchicine 0.6 mg + fluconazole 200 mg after double dose day 4, once daily days 5-8, fasted, mean): 2.3 ng/mL
Kel [4, 14]: 0.1666 h⁻¹
T1/2el [4, 14]: 5.15 h
CLTOT/F [4, 15]: 67.93 L/h
AUCT [4, 15]: 8,410 pg · h/mL
Cmax [4, 15]: 1,870 pg/mL
T1/2el ([4]; Treatment-2: colchicine 0.6 mg (day 19) + ritonavir 100 mg twice daily (days 15-19), arithmetic mean): 17.41 h
CLTOT/F [4, 16]: 18.59 L/h
AUCT [4, 16]: 29,050 pg · h/mL
Cmax [4, 16]: 4,990 pg/mL
Total number of adverse events after Treatment-2 (colchicine + propafenone): 1
Number of subjects experiencing adverse events after Treatment-2 [17]: 1
Percent of subjects experiencing adverse events after Treatment-2 [17]: 8.3%
Number of subjects experiencing adverse events after Treatment-1 [18]: 9
Percent of subjects experiencing adverse events after Treatment-1 [18]: 75.0%
Number of adverse events requiring medication after Treatment-1 (propafenone study): None
Number of serious adverse events or deaths (propafenone study): None
Total number of adverse events after Treatment-1 (propafenone study): 19
Colchicine passing unchanged in the urine ([5]; in vivo): up to 20%
Time to peak concentrations in the blood ([5]; oral, patients with normal organ function): ≤ 2 h
